According to ChEMBL document CHEMBL4043265, “Discovery of imidazo[1,2-a]-, [1,2,4]triazolo[4,3-a]-, and [1,2,4]triazolo[1,5-a]pyridine-8-carboxamide negative allosteric modulators of metabotropic glutamate receptor subtype 5” (Bioorg Med Chem Lett, 2017):
pIC50: −log10 of the molar value. Active and inactive are the calls of the source. The rule behind the calls is not given here.

Key:
[1] = test system: Plasma; conditions: rat, 4 h, 5 µM
[2] = Brain to plasma partition coefficient, Kp of the compound in rat at 3 mg/kg, po; assay type: ADME, organism-based
[3] = target: Sodium-dependent dopamine transporter (Homo sapiens, UniProt Q01959); assay type: ADME, cell-based
Chain of Sodium-dependent dopamine transporter (Q01959 whole entry): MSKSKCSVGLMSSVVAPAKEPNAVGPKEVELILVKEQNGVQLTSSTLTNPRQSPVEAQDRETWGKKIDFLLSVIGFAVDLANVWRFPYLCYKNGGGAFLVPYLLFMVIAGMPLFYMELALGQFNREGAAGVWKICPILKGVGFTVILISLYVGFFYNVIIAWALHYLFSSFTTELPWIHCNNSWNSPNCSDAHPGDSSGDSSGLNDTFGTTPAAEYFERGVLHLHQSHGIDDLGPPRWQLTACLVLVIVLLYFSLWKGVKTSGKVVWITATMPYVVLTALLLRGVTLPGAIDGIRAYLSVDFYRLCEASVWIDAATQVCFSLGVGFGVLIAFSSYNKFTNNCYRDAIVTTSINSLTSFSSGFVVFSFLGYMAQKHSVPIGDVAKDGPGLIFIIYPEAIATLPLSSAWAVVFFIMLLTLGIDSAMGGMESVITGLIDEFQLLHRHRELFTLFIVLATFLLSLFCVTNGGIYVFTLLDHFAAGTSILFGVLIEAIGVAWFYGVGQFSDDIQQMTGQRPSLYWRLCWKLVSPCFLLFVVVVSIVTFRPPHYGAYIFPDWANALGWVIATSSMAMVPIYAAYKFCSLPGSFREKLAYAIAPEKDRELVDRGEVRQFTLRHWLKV

[4] = Mean residence time in rat at 1 mg/kg, iv; assay type: ADME, organism-based; conditions: in vivo
[5] = Apparent permeability of the compound across basolateral side to apical side in MDCK cells expressing MDR1 measured every 30 mins for 2 hrs; assay type: ADME, cell-based, Canis lupus familiaris; conditions: dog
[6] = target: Cytochrome P450 2C9 (Homo sapiens, UniProt P11712)
Chain of Cytochrome P450 2C9 (P11712 whole entry): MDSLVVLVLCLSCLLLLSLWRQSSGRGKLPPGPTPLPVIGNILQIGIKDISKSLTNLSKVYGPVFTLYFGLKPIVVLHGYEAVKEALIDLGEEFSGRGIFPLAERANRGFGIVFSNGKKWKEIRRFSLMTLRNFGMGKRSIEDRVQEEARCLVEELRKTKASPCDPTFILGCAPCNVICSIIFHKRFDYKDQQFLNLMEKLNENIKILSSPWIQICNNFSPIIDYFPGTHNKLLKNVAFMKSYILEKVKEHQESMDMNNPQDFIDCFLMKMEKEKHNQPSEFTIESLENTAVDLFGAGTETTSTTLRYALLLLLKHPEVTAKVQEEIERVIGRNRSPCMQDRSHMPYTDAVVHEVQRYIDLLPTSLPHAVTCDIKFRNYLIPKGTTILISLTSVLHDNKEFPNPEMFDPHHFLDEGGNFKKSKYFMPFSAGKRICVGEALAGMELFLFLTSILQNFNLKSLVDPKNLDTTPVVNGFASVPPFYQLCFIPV

[7] = Tmax in rat at 10 mg/kg, po; assay type: ADME, organism-based; conditions: in vivo
[8] = target: Metabotropic glutamate receptor 5 (Rattus norvegicus) (UniProt P31424); assay: Negative allosteric modulation of rat mGlu5 receptor expressed in HEK293 cells assessed as inhibition of glutamate induced-calcium mobilization at 30 uM preincubated for 2.3 mins followed by glutamate addition measured after 1.7 mins by Fluo-4 AM dye based fluorescence assay relative to glutamate; assay type: functional, cell-based
Chain of Metabotropic glutamate receptor 5 (Rattus norvegicus) (P31424 21-1203 limits assumed): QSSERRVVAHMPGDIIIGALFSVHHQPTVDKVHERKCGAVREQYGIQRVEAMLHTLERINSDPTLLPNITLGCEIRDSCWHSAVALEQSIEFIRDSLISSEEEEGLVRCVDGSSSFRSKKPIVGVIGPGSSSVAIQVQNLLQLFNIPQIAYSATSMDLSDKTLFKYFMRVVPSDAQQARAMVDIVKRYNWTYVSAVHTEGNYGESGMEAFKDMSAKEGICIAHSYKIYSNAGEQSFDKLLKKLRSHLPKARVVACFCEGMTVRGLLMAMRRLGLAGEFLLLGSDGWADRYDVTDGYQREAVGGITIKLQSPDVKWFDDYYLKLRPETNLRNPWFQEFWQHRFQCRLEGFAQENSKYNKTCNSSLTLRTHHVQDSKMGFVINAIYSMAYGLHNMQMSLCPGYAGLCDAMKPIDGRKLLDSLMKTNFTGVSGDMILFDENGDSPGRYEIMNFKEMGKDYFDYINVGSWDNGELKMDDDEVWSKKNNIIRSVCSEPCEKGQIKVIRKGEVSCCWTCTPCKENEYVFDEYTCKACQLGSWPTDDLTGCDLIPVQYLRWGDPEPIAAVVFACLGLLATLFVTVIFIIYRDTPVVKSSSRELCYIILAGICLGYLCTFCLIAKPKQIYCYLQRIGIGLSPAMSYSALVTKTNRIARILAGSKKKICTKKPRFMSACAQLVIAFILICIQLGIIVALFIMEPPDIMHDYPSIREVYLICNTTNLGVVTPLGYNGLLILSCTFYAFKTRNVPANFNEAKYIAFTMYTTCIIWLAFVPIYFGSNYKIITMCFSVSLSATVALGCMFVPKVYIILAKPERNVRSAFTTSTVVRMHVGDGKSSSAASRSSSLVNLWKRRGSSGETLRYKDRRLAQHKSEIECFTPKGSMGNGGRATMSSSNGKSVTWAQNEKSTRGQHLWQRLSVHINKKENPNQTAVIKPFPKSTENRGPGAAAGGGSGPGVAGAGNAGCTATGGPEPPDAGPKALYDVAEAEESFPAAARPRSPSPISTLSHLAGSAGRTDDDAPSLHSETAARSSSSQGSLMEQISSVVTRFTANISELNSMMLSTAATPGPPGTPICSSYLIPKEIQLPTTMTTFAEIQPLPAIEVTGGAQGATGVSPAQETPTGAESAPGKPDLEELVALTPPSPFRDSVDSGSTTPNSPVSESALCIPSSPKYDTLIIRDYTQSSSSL

[9] = target: T1, Cytochrome P450 1A2 (Homo sapiens, UniProt P05177)
T1 sequence (P05177 whole entry): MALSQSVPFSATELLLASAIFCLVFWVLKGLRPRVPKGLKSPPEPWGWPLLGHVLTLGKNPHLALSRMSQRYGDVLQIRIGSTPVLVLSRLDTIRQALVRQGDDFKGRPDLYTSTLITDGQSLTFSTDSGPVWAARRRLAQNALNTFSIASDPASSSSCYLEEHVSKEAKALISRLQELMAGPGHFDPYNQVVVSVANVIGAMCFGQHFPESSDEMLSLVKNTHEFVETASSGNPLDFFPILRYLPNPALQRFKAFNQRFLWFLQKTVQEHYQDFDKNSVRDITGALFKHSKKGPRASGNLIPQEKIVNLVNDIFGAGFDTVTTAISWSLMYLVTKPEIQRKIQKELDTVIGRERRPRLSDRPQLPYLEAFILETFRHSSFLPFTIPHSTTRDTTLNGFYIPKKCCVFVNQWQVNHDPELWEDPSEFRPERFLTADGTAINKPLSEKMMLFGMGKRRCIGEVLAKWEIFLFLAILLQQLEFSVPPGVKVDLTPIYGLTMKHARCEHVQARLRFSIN

[10] = test system: Brain; assay: Fraction unbound in rat brain homogenates at 5 uM after 6 hrs by equilibrium dialysis method; assay type: ADME, tissue-based; conditions: brain homogenate
[11] = test system: Plasma; conditions: human, 4 h, 5 µM
[12] = Apparent permeability of the compound across apical side to basolateral side in MDCK cells expressing MDR1 measured every 30 mins for 2 hrs; assay type: ADME, cell-based, Canis lupus familiaris; conditions: dog
[13] = test system: Mus musculus; assay: Anxiolytic-like activity in ip dosed Harlan CD-1 mouse marble burying model of OCD assessed as suppression of marble burying activity administered 15 mins prior to test measured over 30 mins; assay type: functional; conditions: Harlan CD-1, ip, read-out: MED
[14] = target: Cytochrome P450 2D6 (Homo sapiens, UniProt P10635)
Chain of Cytochrome P450 2D6 (P10635 whole entry): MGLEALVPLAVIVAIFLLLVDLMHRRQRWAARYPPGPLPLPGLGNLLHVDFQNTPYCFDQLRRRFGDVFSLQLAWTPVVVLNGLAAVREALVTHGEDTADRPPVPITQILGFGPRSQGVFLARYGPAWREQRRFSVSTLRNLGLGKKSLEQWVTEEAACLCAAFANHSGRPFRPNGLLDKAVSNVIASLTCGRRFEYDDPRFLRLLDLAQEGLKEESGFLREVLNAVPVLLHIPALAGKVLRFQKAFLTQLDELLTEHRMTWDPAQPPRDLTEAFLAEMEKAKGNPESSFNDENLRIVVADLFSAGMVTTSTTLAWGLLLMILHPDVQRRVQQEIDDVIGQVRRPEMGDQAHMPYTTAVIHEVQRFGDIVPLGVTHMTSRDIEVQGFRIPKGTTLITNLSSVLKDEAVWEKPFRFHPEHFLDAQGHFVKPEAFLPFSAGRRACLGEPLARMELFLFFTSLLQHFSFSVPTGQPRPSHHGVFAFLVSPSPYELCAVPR

[15] = Volume of distribution at steady state in rat at 1 mg/kg, iv; assay type: ADME, organism-based; conditions: in vivo, read-out: Vdss
[16] = AUC in rat at 10 mg/kg, po; assay type: ADME, organism-based; conditions: in vivo
[17] = target: Platelet-activating factor receptor (Homo sapiens) (UniProt P25105); assay: Displacement of [3H]PAF from human PAF at 10 uM after 3 hrs by scintillation counting method relative to control
Chain of Platelet-activating factor receptor (Homo sapiens) (P25105 whole entry): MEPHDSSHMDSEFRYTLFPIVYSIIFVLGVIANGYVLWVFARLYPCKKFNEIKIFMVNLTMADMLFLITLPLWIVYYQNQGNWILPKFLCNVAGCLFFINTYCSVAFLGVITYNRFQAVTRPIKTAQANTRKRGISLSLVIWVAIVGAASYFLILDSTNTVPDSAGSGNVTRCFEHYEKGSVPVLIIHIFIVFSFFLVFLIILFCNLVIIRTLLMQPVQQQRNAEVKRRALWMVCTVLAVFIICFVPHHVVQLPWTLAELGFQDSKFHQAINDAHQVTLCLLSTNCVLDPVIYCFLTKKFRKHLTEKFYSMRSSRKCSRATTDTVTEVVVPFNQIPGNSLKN

[18] = Cmax in rat at 10 mg/kg, po; assay type: ADME, organism-based; set-up: dose 10 mg/kg, route oral; conditions: in vivo
[19] = Ratio of unbound brain to plasma concentration in rat at 3 mg/kg, po; assay type: ADME, organism-based
[20] = target: T2, DAT (sodium-dependent dopamine transporter) (Homo sapiens, UniProt Q01959); assay: in vitro
T2 sequence (Q01959 whole entry): as the sequence (Q01959 whole entry) above

[21] = Half life in rat at 1 mg/kg, iv; assay type: ADME, organism-based; conditions: in vivo
[22] = target: Metabotropic glutamate receptor 5 (Rattus norvegicus, UniProt P31424); assay: Negative allosteric modulation of rat mGlu5 receptor expressed in HEK293 cells assessed as inhibition of glutamate induced-calcium mobilization preincubated for 2.3 mins followed by glutamate addition measured after 1.7 mins by Fluo-4 AM dye based fluorescence assay; assay type: functional, cell-based
Chain of Metabotropic glutamate receptor 5 (P31424 whole entry): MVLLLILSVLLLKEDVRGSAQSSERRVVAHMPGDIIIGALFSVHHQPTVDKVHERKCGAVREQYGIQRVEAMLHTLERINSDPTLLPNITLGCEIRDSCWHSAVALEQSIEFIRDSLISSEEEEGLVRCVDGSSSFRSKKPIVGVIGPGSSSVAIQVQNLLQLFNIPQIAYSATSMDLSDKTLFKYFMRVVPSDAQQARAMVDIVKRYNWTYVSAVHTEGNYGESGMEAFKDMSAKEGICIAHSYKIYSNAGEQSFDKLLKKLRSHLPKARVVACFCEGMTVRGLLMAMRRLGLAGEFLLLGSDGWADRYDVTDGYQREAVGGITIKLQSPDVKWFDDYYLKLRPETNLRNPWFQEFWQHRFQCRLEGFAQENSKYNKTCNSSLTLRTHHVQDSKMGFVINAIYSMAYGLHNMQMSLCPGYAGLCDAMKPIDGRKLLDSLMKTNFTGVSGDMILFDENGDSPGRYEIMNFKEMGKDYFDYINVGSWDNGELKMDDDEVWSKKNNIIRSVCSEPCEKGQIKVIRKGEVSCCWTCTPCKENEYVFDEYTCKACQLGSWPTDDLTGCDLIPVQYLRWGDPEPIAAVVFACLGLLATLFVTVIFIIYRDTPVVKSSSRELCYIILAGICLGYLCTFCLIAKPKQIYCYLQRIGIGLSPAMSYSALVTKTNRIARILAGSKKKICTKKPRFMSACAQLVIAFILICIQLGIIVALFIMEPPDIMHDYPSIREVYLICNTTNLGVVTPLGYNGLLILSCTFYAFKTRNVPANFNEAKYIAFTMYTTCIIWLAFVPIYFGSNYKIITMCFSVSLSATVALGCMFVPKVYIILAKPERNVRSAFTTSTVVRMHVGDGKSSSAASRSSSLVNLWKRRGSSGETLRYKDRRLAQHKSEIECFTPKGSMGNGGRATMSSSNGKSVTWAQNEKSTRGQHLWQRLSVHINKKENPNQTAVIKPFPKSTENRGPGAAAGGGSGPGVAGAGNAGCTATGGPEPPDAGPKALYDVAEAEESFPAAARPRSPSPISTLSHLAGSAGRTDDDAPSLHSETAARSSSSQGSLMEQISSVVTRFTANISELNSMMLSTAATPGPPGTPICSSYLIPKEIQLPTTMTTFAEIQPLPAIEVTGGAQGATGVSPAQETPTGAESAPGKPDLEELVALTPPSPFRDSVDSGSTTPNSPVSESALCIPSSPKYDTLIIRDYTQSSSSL

[23] = target: Cytochrome P450 3A4 (Homo sapiens, UniProt P08684)
Chain of Cytochrome P450 3A4 (P08684 whole entry): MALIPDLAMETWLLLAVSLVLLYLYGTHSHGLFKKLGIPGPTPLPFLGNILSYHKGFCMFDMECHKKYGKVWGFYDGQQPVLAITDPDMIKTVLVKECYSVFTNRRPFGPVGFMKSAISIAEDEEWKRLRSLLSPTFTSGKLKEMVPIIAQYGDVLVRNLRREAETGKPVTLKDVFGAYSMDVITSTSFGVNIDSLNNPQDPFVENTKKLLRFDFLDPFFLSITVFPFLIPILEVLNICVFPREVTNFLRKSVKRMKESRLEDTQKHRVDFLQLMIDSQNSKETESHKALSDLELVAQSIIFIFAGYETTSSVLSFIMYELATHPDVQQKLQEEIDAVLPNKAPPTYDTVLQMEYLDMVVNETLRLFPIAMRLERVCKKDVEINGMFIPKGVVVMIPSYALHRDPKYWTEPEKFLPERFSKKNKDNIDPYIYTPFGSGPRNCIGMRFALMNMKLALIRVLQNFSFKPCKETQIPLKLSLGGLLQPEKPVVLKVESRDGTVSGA

[24] = Plasma clearance in rat at 1 mg/kg, iv; assay type: ADME, organism-based
[25] = Oral bioavailability in rat at 10 mg/kg; assay type: ADME, organism-based; conditions: in vivo
[26] = target: T2, DAT (sodium-dependent dopamine transporter); assay: Inhibition of full-length recombinant human DAT expressed in CHOK1 cells assessed as reduction in [3H]dopamine uptake at 10 uM pretreated for 20 mins followed by [3H]dopamine addition measured after 10 mins by scintillation counting method relative to control; assay type: cell-based; conditions: CHO-K1 cells expressing full-length recombinant human DAT, probe [3H]dopamine
[27] = test system: Mus musculus; assay: Anxiolytic-like activity in Harlan CD-1 mouse marble burying model of OCD assessed as suppression of marble burying activity at 10 mg/kg, ip administered 15 mins prior to test measured over 30 mins; assay type: functional, organism-based
[28] = CHO-K1 cells expressing recombinant human DAT, probe [125I]RTI-55

Row | Fu [1] | pIC50 [6] | %max [8] [%] | pIC50 [9] | Fu [11] | pIC50 [14] | pIC50 [22] | pIC50 [23] | SMILES | further results
1 | 0.066 | < 4.52 | 1.5 | 4.82 | 0.071 | < 4.52 | 7.70 | < 4.52 | O=C(Nc1ccc(F)cn1)c1cc(Oc2cncc(F)c2)cn2ncnc12 | Kp [2]: 1.4; pIC50 [3]: 6.14; MRT [4]: 2.38 h; Papp [5]: 13.1 ×10⁻⁶ cm/s; Tmax [7]: 3 h; Fu [10]: 0.028; Papp [12]: 10 ×10⁻⁶ cm/s; minimal effective dose [13]: 3 mg/kg; Vd [15]: 1.6 L/kg; AUC [16]: 8.3 µM·h; inhibition [17]: 55%; Cmax [18]: 673 nM; K(p,uu,brain) [19]: 0.6; inhibition at 3 h, 10 µM [20, 28]: 89%; half-life [21]: 1.35 h; clearance [24]: 11 mL/min/kg; bioavailability [25]: 20%
2 | 0.168 | < 4.52 | 1.5 | 5.00 | 0.313 | < 4.52 | 7.13 | < 4.52 | O=C(Nc1ccc(F)cn1)c1cc(Oc2cncnc2)cn2ncnc12 | pIC50 [3]: < 5.00; inhibition at 10 min, 10 µM [26]: 42%; inhibition at 3 h, 10 µM [20, 28]: 60%
3 | 0.005 | 5.16 | 1.4 | 6.10 | 0.016 | < 4.52 | 7.13 | 5.72 | Cc1ccc(NC(=O)c2cc(Oc3cncc(F)c3)cn3ccnc23)nc1 | 
4 |  |  | 1.1 |  |  |  | 7.05 |  | O=C(Nc1ccc(F)cn1)c1cc(Oc2cncc(Cl)c2)cn2ncnc12 | 
5 | 0.051 | < 4.52 | 2.3 | 5.37 | 0.1 | < 4.52 | 7.57 | 4.75 | O=C(Nc1ccc(F)cn1)c1cc(Oc2cncc(F)c2)cn2cnnc12 | Kp [2]: 1.7; MRT [4]: 1.97 h; Papp [5]: 11.1 ×10⁻⁶ cm/s; Tmax [7]: 3 h; Fu [10]: 0.065; Papp [12]: 4.7 ×10⁻⁶ cm/s; minimal effective dose [13]: 3 mg/kg; Vd [15]: 1.6 L/kg; AUC [16]: 5.67 µM·h; Cmax [18]: 573 nM; K(p,uu,brain) [19]: 2.1; inhibition at 3 h, 10 µM [20, 28]: 91%; half-life [21]: 1.32 h; clearance [24]: 14 mL/min/kg; bioavailability [25]: 17%
6 |  |  |  |  |  |  |  |  | Cc1cc(Oc2cncnc2)cc(C(=O)Nc2ccc(F)cn2)n1 | Activity [27]: Active
7 | 0.023 | 5.80 | 1.5 | 6.22 | 0.026 | 4.61 | 7.42 | 5.64 | O=C(Nc1cccc(F)n1)c1cc(Oc2cncc(F)c2)cn2ccnc12 | 
8 |  |  | 2.2 |  |  |  | 6.93 |  | O=C(Nc1ccc(F)cn1)c1cc(Oc2cc(F)cnc2F)cn2ncnc12 | 
9 |  |  | 2.7 |  |  |  | 6.43 |  | Cc1nnc2c(C(=O)Nc3ccc(F)cn3)cc(Oc3cncc(F)c3)cn12 | 
10 | 0.028 | 5.24 | 1.6 | 6.10 | 0.02 | < 4.52 | 7.70 | 5.41 | O=C(Nc1ccc(F)cn1)c1cc(Oc2cncc(F)c2)cn2ccnc12 | 
11 |  |  | 3.3 |  |  |  | 5.85 |  | Cc1nc2c(C(=O)Nc3ccc(F)cn3)cc(Oc3cncc(F)c3)cn2n1 | 
12 |  |  | 1.7 |  |  |  | 6.89 |  | O=C(Nc1ccc(F)cn1)c1cc(Oc2cncc(OC(F)F)c2)cn2ncnc12 | 
13 |  |  | 1.6 |  |  |  | 6.49 |  | O=C(Nc1ccc(F)cn1)c1cc(Oc2cncnc2)cn2cnnc12 | 
14 | 0.066 | < 4.52 | 2 | 5.39 | 0.067 | < 4.52 | 7.39 | < 4.52 | O=C(Nc1ccc(F)cn1)c1cc(Oc2cncc(F)c2F)cn2ncnc12 | inhibition at 3 h, 10 µM [20, 28]: 87%

Row | SMILES | Fu [1] | pIC50 [6] | %max [8] [%] | pIC50 [9] | Fu [11] | pIC50 [14] | pIC50 [22] | pIC50 [23] | further results
15 | O=C(Nc1ccc(F)cn1)c1cc(Oc2cnc(F)c(F)c2)cn2ncnc12 | 0.023 | < 4.52 | 1.6 | < 4.52 | 0.031 | < 4.52 | 7.25 | 4.64 | pIC50 [3]: 5.54; inhibition at 3 h, 10 µM [20]: 67%
16 | COc1ccc(NC(=O)c2cc(Oc3cncc(F)c3)cn3ccnc23)nc1 | 0.014 | 5.24 | 1.6 | 5.96 | 0.028 | < 4.52 | 7.26 | 5.70 | 
